Structures are written as SMILES.

This passage reports IC50 results from patent US20100003246A1, “Novel heterocyclic compounds and uses therof” (priority 2008, published 2010).

The target in this assay is T1, b-Raf(V600E) (Homo sapiens, UniProt P15056, V600E).
T1 construct: made in house
T1 sequence (P15056 whole entry V600E): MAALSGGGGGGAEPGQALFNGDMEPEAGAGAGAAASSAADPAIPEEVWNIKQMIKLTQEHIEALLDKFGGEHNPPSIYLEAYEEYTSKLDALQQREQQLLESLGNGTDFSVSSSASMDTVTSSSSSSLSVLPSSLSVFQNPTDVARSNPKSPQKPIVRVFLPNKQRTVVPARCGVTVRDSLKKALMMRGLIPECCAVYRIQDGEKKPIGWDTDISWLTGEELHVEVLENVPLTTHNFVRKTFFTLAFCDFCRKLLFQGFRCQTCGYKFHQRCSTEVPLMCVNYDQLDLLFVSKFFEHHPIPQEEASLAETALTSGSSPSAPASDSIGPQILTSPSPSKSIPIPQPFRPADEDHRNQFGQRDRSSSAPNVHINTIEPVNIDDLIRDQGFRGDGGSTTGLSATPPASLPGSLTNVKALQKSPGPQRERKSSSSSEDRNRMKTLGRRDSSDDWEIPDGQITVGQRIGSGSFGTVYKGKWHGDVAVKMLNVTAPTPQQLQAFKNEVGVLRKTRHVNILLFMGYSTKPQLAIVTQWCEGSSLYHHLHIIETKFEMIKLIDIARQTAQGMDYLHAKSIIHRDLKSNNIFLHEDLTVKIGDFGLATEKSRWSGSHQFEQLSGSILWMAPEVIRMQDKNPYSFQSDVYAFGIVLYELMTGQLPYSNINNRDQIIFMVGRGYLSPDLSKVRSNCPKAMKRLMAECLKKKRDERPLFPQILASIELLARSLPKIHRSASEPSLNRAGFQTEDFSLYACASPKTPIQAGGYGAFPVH
Description: Raf/Mek Amplified Luminescence Proximity Homogeneous Assay (Alpha Screen), b-Raf(V600E). The format is biochemical. Conditions: mutant b-Raf(V600E), read-out: mut-b-RAF (IC50 in uM). As for the experimental part:
Assay buffer: 50 mM Tris, pH 7.5, 15 mM MgCl2, 0.01% BSA, 1 mM DTT Stop buffer: 60 mM EDTA, 0.01% Tween20 Bead buffer: 50 mM Tris, pH 7.5, 0.01% Tween20
b-Raf(V600E), active: Recombinant in-house material biotinylated Mek, kinase dead: Recombinant in-house material Alpha Screen detection kit PerkinElmer, #6760617R Anti phospho-MEK½ Cell signaling #9121 384 well assay plates: White Greiner plates, #781207
b-Raf(V600E) approximately 4 pM c-Raf approximately 4 nM biotinylated Mek, Kinase dead approximately 10 nM
Pre-incubation time with compounds 60 min at room temperature Reaction time 1 or 3 hours at room temperature
Raf and biotinylated Mek, kinase dead, were combined at 2× final concentrations in assay buffer (50 mM Tris, pH 7.5, 15 mM MgCl2, 0.01% BSA and 1 mM DTT) and dispensed 10 μl per well in assay plates (Greiner white 384 well assay plates #781207) containing 0.5 μl of 40× of a raf kinase inhibitor test compound diluted in 100% DMSO. The plate was incubated for 60 min at room temperature.
The Raf kinase activity reaction was started by the addition of 10 μl per well of 2×ATP diluted in assay buffer. After 3 hours (bRaf(V600E)) or 1 hour (c-Raf), the reactions were stopped with the addition of 10 μl of stop reagent (60 mM EDTA). Phosphorylated product was measured using a rabbit anti-p-MEK (Cell Signaling, #9121) antibody and the Alpha Screen IgG (Protein A) detection Kit (PerkinElmer #6760617R), by the addition of 30 μL to the well of a mixture of the antibody (1:2000 dilution) and detection beads (1:2000 dilution of both beads) in bead buffer (50 mM Tris, pH 7.5, 0.01% Tween20). The additions were carried out under dark conditions to protect the detection beads from light. A lid was placed on top of the plate and incubated for 1 hour at room temperature, then the luminescence was read on a PerkinElmer Envision instrument. The concentration of each compound for 50% inhibition (IC50) was calculated by non-linear regression using XL Fit data analysis software.
The Raf/Mek Amplified Luminescence Proximity Homogeneous Assay described was used to generate the luminescence and mutant b-Raf(V600E) IC50 data for selected Raf Kinase Inhibitors shown in Table 1 above.
As a reminder, the IC50 is the concentration that inhibits the measured activity by half. Take `Oc1ccc(-c2[nH]c(-c3ccccc3)nc2-c2ccncc2)cn1` [Compound 44, 5-(2-phenyl-4-(pyridin-4-yl)-1H-imidazol-5-yl)pyridin-2-ol]: the IC50 was 0.465 µM.
`c1ccc(-c2nc(-c3ccncc3)c(-c3cnc4[nH]ccc4c3)[nH]2)cc1` [Compound 45, 5-(2-phenyl-4-(pyridin-4-yl)-1H-imidazol-5-yl)-1H-pyrrolo[2,3-b]pyridine]: the IC50 stood at 0.0046 µM.
`Nc1ncc(-c2[nH]c(-c3ccccc3)nc2-c2ccncc2)cc1Cl` [Compound 46, 3-chloro-5-(2-phenyl-4-(pyridin-4-yl)-1H-imidazol-5-yl)pyridin-2-amine]: the IC50 worked out at 0.0287 µM.
Regarding `O=C1CCc2cc(-c3[nH]c(-c4ccccc4)nc3-c3ccncc3)cnc2N1` [Compound 47, 6-(2-phenyl-4-(pyridin-4-yl)-1H-imidazol-5-yl)-3,4-dihydro-1,8-naphthyridin-2(1H)-one], the IC50 came out at 0.885 µM.
In the case of `COc1cc(-c2nc(-c3ccccc3)[nH]c2-c2ccnc(C)c2)cnc1N` [Compound 48, 3-methoxy-5-(5-(2-methylpyridin-4-yl)-2-phenyl-1H-imidazol-4-yl)pyridin-2-amine], the IC50 is 0.12 µM.
For `c1ccc(-c2nc(-c3ccncc3)c(-c3cnc4[nH]ncc4c3)[nH]2)cc1` [Compound 49, 5-(2-phenyl-4-(pyridin-4-yl)-1H-imidazol-5-yl)-1H-pyrazolo[3,4-b]pyridine] the value was 0.0222 µM; for `COc1nc(-c2[nH]c(C)nc2-c2ccncc2)cnc1N` [Compound 50, 3-methoxy-5-(2-methyl-4-(pyridin-4-yl)-1H-imidazol-5-yl)pyrazin-2-amine], 0.259 µM; for `COc1cc(-c2[nH]c(C)nc2-c2ccncc2)cnc1N` [Compound 51, 3-methoxy-5-(2-methyl-4-(pyridin-4-yl)-1H-imidazol-5-yl)pyridin-2-amine], 0.0196 µM.
For `c1ccc(-c2nc(-c3ccncc3)c(-c3cnc4c(c3)CCN4)[nH]2)cc1` [Compound 52, 5-(2-phenyl-4-(pyridin-4-yl)-1H-imidazol-5-yl)-2,3-dihydro-1H-pyrrolo[2,3-b]pyridine] the value was 0.0123 µM; for `c1ccc(-c2nc(-c3ccncc3)c(-c3cnc4[nH]cnc4c3)[nH]2)cc1` [Compound 53, 6-(2-phenyl-4-(pyridin-4-yl)-1H-imidazol-5-yl)-3H-imidazo[4,5-b]pyridine], 0.29 µM.
Turning to `COc1cc(-c2nc(-c3ccccc3)[nH]c2-c2ccnc(N)c2)cnc1N` [Compound 55, 5-(5-(2-aminopyridin-4-yl)-2-phenyl-1H-imidazol-4-yl)-3-methoxypyridin-2-amine], the IC50 was 0.0098 µM.
The same measure for `CNc1nccc(-c2[nH]c(-c3ccccc3)nc2-c2cnc(N)c(OC)c2)n1` [Compound 56, 4-(4-(6-amino-5-methoxypyridin-3-yl)-2-phenyl-1H-imidazol-5-yl)-N-methylpyrimidin-2-amine]: 0.0029 µM; for `c1ccc(-c2nc(-c3ccncc3)c(-c3ccsc3)[nH]2)cc1` [Compound 57, 4-(2-phenyl-5-(thiophen-3-yl)-1H-imidazol-4-yl)pyridine]: 0.62 µM.
For the compound `COc1cc(-c2[nH]c(-c3ccccc3)nc2-c2ccnc(N[C@@H]3CCCN(S(=O)(=O)c4ccc(Cl)cc4)C3)n2)cnc1N` [Compound 58, (R)-4-(5-(6-amino-5-methoxypyridin-3-yl)-2-phenyl-1H-imidazol-4-yl)-N-(1-(4-chlorophenylsulfonyl)piperidin-3-yl)pyrimidin-2-amine], the IC50 amounted to 0.0002 µM.
In the case of `c1ccc(-c2nc(-c3ccncc3)c(-c3cnc4c(n3)CCN4)[nH]2)cc1` [Compound 59, 2-(2-phenyl-4-(pyridin-4-yl)-1H-imidazol-5-yl)-6,7-dihydro-5H-pyrrolo[3,2-b]pyrazine], the IC50 was found to be 0.68 µM.
As for `COc1cc(-c2nc(-c3ccccc3)[nH]c2-c2ccncn2)cnc1N` [Compound 61, 3-methoxy-5-(2-phenyl-5-(pyrimidin-4-yl)-1H-imidazol-4-yl)pyridin-2-amine], the IC50 turned out to be 0.0049 µM.
With `COc1cc(-c2[nH]c(-c3ccccc3)nc2-c2ccnc(N[C@H]3CCCN(S(=O)(=O)c4ccc(Cl)cc4)C3)n2)cnc1N` [Compound 62, (S)-4-(5-(6-amino-5-methoxypyridin-3-yl)-2-phenyl-1H-imidazol-4-yl)-N-(1-(4-chlorophenylsulfonyl)piperidin-3-yl)pyrimidin-2-amine], the IC50 came out at 0.0003 µM.
Turning to `COc1cc(-c2nc(-c3ccccc3)[nH]c2-c2ccnc(N(C)C)n2)cnc1N` [Compound 63, 4-(4-(6-amino-5-methoxypyridin-3-yl)-2-phenyl-1H-imidazol-5-yl)-N,N-dimethylpyrimidin-2-amine], the IC50 worked out at 0.641 µM.
Consider `COc1cc(-c2ccc(S(=O)(=O)N3CCC[C@@H](Nc4nccc(-c5nc(-c6ccccc6)[nH]c5-c5cnc(N)c(OC)c5)n4)C3)cc2)cnc1N` [Compound 64, (R)-4-(5-(6-amino-5-methoxypyridin-3-yl)-2-phenyl-1H-imidazol-4-yl)-N-(1-(4-(6-amino-5-methoxypyridin-3-yl)phenylsulfonyl)piperidin-3-yl)pyrimidin-2-amine], for which the IC50 was 0.0003 µM.
Consider `COc1cc(-c2[nH]c(-c3ccccc3)nc2-c2ccnc(N[C@@H]3CCCNC3)n2)cnc1N` [Compound 65, (R)-4-(5-(6-amino-5-methoxypyridin-3-yl)-2-phenyl-1H-imidazol-4-yl)-N-(piperidin-3-yl)pyrimidin-2-amine], for which the IC50 was found to be 0.0599 µM.
For `COc1cc(-c2[nH]c(-c3ccccc3)nc2-c2ccnc(NCCNC(C)=O)n2)cnc1N` [Compound 67, N-(2-(4-(5-(6-amino-5-methoxypyridin-3-yl)-2-phenyl-1H-imidazol-4-yl)pyrimidin-2-ylamino)ethyl)acetamide] the value was 0.0001 µM.
Turning to `COCC(=O)NCCNc1nccc(-c2nc(-c3ccccc3)[nH]c2-c2cnc(N)c(OC)c2)n1` [Compound 68, N-(2-(4-(5-(6-amino-5-methoxypyridin-3-yl)-2-phenyl-1H-imidazol-4-yl)pyrimidin-2-ylamino)ethyl)-2-methoxyacetamide], the IC50 worked out at 0.0001 µM.
For `COc1ccc(-c2nc(-c3ccncc3)c(-c3cnc(N)c(OC)c3)[nH]2)cc1` [Compound 69, 3-methoxy-5-(2-(4-methoxyphenyl)-4-(pyridin-4-yl)-1H-imidazol-5-yl)pyridin-2-amine], the IC50 came to 0.0003 µM.
As to `COc1cc(-c2[nH]c(-c3ccccc3)nc2-c2ccnc(NCCNS(=O)(=O)c3ccc(Cl)cc3)n2)cnc1N` [Compound 70, N-(2-(4-(5-(6-amino-5-methoxypyridin-3-yl)-2-phenyl-1H-imidazol-4-yl)pyrimidin-2-ylamino)ethyl)-4-chlorobenzenesulfonamide], the IC50 was 0.0004 µM.
In the case of `COc1cc(-c2[nH]c(-c3ccc(O)cc3)nc2-c2ccncc2)cnc1N` [Compound 71, 4-(5-(6-amino-5-methoxypyridin-3-yl)-4-(pyridin-4-yl)-1H-imidazol-2-yl)phenol], the IC50 worked out at 0.0003 µM.
As for `COc1cc(-c2nc(-c3ccccc3)[nH]c2-c2ccnc(NC3CC3)n2)cnc1N` [Compound 72, 4-(4-(6-amino-5-methoxypyridin-3-yl)-2-phenyl-1H-imidazol-5-yl)-N-cyclopropylpyrimidin-2-amine], the IC50 is 0.0016 µM.
